In patent US12065443B2, “Compounds and pharmaceutical compositions thereof for the treatment of diseases” (priority 2017, dated 2024):

Key:
Test in all cases: biochemical
SIK1 = target: T1, SIK1 (Homo sapiens, UniProt P57059); conditions: 33P radioactive SIK kinase assay, AMARA peptide, 10 μM ATP; read-out: SIK1 IC50
T1 construct: purchased Carna Biosciences 02-131
Method in brief: (§1)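 Read-out: ^33P incorporated into AMARA peptide, counted on filter plates, taken as kinase activity. Reactions start on addition of labeled/unlabeled ATP to enzyme plus substrate and end with phosphoric acid. Controls: 1% DMSO (negative) and 10 μM staurosporine (positive), final.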

SIK2 = target: T2, SIK2 (Homo sapiens, UniProt Q9H0K1); conditions: 33P radioactive SIK kinase assay, AMARA peptide, 10 μM ATP
T2 construct: purchased ThermoFisher Scientific PV4792
T2 sequence (Q9H0K1 whole entry): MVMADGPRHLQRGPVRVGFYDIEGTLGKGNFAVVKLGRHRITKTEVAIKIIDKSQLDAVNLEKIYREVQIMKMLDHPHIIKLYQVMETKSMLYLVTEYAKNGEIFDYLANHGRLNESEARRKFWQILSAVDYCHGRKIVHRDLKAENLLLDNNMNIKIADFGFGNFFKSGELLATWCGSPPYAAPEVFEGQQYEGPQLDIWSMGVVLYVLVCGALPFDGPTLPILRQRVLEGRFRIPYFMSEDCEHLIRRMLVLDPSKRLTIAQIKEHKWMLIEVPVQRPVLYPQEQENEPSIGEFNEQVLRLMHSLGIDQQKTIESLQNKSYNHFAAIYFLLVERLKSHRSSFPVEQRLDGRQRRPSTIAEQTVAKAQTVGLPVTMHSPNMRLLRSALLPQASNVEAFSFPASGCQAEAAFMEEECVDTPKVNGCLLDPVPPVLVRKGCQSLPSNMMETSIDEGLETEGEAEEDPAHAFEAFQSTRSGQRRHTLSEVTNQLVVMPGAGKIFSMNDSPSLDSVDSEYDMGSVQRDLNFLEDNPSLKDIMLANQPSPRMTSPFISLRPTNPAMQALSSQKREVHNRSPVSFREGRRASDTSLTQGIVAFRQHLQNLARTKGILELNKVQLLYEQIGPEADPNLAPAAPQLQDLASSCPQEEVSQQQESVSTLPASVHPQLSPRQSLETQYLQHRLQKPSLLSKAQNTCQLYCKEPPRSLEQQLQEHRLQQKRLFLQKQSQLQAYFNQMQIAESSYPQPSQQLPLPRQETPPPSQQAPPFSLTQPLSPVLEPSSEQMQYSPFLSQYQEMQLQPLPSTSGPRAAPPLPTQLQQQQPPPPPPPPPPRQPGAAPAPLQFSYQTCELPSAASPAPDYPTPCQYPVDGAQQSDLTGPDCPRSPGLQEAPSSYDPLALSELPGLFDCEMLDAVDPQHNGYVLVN
Method in brief: as §1

SIK3 = target: T3, SIK3 (Homo sapiens, UniProt Q9Y2K2)
T3 construct: purchased SignalChem S12-11G-100
T3 sequence (Q9Y2K2 whole entry): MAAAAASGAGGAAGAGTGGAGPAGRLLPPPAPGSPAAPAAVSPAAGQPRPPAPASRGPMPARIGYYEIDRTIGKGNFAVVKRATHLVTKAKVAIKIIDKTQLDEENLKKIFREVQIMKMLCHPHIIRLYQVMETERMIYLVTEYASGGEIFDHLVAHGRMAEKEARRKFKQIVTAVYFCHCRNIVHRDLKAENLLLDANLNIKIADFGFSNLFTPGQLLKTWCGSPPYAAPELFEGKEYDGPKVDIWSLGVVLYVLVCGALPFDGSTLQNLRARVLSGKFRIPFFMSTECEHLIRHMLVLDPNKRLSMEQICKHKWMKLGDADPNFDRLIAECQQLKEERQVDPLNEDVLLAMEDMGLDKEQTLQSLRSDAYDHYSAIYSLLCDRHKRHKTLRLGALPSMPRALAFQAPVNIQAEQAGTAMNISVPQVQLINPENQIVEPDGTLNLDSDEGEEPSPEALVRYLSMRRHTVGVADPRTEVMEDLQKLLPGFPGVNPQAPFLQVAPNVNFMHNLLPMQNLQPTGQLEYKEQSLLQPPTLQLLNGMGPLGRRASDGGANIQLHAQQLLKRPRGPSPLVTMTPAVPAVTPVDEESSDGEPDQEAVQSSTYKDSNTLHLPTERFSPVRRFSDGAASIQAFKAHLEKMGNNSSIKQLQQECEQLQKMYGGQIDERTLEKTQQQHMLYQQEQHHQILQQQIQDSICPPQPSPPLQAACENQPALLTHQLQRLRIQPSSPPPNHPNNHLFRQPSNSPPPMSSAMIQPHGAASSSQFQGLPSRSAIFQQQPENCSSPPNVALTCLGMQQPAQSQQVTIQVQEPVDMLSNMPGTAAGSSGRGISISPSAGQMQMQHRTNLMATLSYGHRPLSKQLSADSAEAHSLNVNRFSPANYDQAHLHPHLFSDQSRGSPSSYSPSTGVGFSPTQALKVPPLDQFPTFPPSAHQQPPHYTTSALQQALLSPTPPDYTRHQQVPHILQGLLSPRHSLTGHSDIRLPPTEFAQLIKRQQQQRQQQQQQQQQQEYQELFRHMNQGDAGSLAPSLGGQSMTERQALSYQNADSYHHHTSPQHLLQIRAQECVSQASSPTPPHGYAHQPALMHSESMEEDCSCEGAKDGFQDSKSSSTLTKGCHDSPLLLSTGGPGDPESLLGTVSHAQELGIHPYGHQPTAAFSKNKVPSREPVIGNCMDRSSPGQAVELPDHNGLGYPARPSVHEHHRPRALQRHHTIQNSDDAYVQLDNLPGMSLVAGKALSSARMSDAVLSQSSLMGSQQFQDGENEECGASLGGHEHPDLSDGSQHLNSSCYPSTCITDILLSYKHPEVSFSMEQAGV
Method in brief: as §1

T1 sequence (P57059 whole entry): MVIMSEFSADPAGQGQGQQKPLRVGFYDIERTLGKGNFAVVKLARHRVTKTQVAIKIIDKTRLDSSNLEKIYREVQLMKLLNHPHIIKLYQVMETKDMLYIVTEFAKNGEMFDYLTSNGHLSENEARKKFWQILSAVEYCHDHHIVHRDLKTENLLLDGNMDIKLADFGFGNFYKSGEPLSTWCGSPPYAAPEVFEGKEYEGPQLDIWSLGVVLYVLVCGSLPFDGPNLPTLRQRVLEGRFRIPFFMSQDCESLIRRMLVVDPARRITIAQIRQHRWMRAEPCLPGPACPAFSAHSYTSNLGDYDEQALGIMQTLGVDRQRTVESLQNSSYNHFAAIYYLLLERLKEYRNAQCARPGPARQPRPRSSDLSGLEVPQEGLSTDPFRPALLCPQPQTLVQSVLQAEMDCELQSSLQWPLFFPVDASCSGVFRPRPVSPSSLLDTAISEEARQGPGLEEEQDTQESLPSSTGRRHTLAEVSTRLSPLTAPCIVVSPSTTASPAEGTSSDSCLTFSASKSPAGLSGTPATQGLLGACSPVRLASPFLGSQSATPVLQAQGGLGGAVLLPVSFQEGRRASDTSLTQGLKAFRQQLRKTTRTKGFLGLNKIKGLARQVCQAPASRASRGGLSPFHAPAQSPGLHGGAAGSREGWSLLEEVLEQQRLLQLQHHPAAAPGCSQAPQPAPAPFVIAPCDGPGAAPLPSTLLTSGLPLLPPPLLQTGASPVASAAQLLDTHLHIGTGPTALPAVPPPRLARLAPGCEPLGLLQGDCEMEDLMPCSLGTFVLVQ

Row | SMILES | IC50 (SIK1) [nM] | IC50 (SIK2) [nM] | IC50 (SIK3) [nM]
1 | COc1cc(-c2cnc3cc(-c4cncnc4C(C)C)ccn23)cc(OC)c1C(=O)NCC(F)(F)F [compound 253, 4-[7-(4-isopropylpyrimidin-5-yl)imidazo[1,2-a]pyridin-3-yl]-2,6-dimethoxy-N-(2,2,2-trifluoroethyl)benzamide] | > 500 | > 500 | 100 to 500
2 | COc1cc(-n2cnc3cc(-c4cnn(C)c4)ccc32)cc(OC)c1C(=O)N[C@H]1CCCC[C@@H]1O [compound 164] | 100 to 500 | 100 to 500 | > 500
3 | COc1cc(-n2cnc3cc(-c4cnn(C)c4)ccc32)cc(OC)c1C(=O)N1CC(OCc2ccccc2)C1 [compound 186, (3-benzyloxyazetidin-1-yl)-[2,6-dimethoxy-4-[5-(1-methylpyrazol-4-yl)benzimidazol-1-yl]phenyl]methanone] | 10 to 100 | 100 to 500 | 100 to 500
4 | COc1cc(-n2cnc3cc(-c4cnn(C)c4)ccc32)cc(OC)c1C(=O)N1CC(N2CCOCC2)C1 [compound 188, [2,6-dimethoxy-4-[5-(1-methylpyrazol-4-yl)benzimidazol-1-yl]phenyl]-(3-morpholinoazetidin-1-yl)methanone] | > 500 | > 500 | > 500
5 | COc1cc(-n2cnc3cc(-c4cnn(C)c4)ccc32)cc(OC)c1C(=O)NCCCO [compound 63, N-(3-hydroxypropyl)-2,6-dimethoxy-4-[5-(1-methylpyrazol-4-yl)benzimidazol-1-yl]benzamide] | 100 to 500 | 10 to 100 | 10 to 100
6 | COc1cc(-n2cnc3cc(-c4cnn(C)c4)ccc32)cc(OC)c1C(=O)NC1COC1 [compound 92, 2,6-dimethoxy-4-[5-(1-methylpyrazol-4-yl)benzimidazol-1-yl]-N-(oxetan-3-yl)benzamide] | 10 to 100 | 10 to 100 | 10 to 100
7 | COc1cc(-n2cnc3cc(-c4nccn4C)ccc32)cc(OC)c1C(=O)NCC(F)(F)F [compound 134, 2,6-dimethoxy-4-[5-(1-methylimidazol-2-yl)benzimidazol-1-yl]-N-(2,2,2-trifluoroethyl)benzamide] | > 500 | 10 to 100 | 100 to 500
8 | COc1cc(-n2cnc3cc(-c4cnn(C)c4)ccc32)cc(OC)c1C(=O)NCCS(C)(=O)=O [compound 65, 2,6-dimethoxy-4-[5-(1-methylpyrazol-4-yl)benzimidazol-1-yl)-N-(2-methylsulfonylethyl)benzamide] | 100 to 500 | 10 to 100 | 10 to 100
9 | COc1cc(-n2cnc3cc(-c4cnn(C)c4)ccc32)cc(OC)c1C(=O)N1CC2(C1)CS(=O)(=O)C2 [compound 195, [2,6-dimethoxy-4-[5-(1-methylpyrazol-4-yl)benzimidazol-1-yl]phenyl]-(2,2-dioxo-2λ^6-thia-6-azaspiro[3.3]heptan-6-yl)methanone] | 100 to 500 | 100 to 500 | 100 to 500
10 | COc1cc(-n2cnc3cc(-c4cncnc4)ccc32)cc(OC)c1C(=O)NCC(F)(F)F [compound 104, 2,6-dimethoxy-4-(5-pyrimidin-5-ylbenzimidazol-1-yl)-N-(2,2,2-trifluoroethyl)benzamide] | > 500 | 100 to 500 | 100 to 500
11 | COc1cc(-n2cnc3cc(-c4cnn(C)c4)ccc32)cc(OC)c1C(=O)NC1CCC[C@H]1O (stereo in doubt) [compound 140, N-[(1R,2R)-2-hydroxycyclopentyl]-2,6-dimethoxy-4-[5-(1-methylpyrazol-4-yl)benzimidazol-1-yl]benzamide] | 10 to 100 | 10 to 100 | 10 to 100
12 | COc1cncc(-c2ccc3c(c2)ncn3-c2cc(OC)c(C(=O)NCC(F)(F)F)c(OC)c2)c1 [compound 35, 2,6-dimethoxy-4-[5-(5-methoxy-3-pyridyl)benzimidazol-1-yl]-N-(2,2,2-trifluoroethyl)benzamide] | 100 to 500 | 100 to 500 | 10 to 100
13 | COc1cc(-n2cnc3cc(-c4cnccn4)ccc32)cc(OC)c1C(=O)NCC(F)(F)F [compound 128, 2,6-dimethoxy-4-(5-pyrazin-2-ylbenzimidazol-1-yl)-N-(2,2,2-trifluoroethyl)benzamide] | > 500 | > 500 | 100 to 500
14 | COc1cc(-n2cnc3cc(-c4nnc(C)o4)ccc32)cc(OC)c1C(=O)NCC(F)(F)F [Cpd 167, 2,6-dimethoxy-4-[5-(5-methyl-1,3,4-oxadiazol-2-yl)benzimidazol-1-yl]-N-(2,2,2-trifluoroethyl)benzamide] | > 500 | > 500 | 100 to 500
15 | COc1cc(-n2cnc3cc(-c4cnn(C)c4)ccc32)cc(OC)c1C(=O)Nc1cnn(C)c1 [compound 83, 2,6-dimethoxy-N-(1-methylpyrazol-4-yl)-4-[5-(1-methylpyrazol-4-yl)benzimidazol-1-yl]benzamide] | 100 to 500 | 100 to 500 | 100 to 500
16 | COc1cc(-n2cnc3cc(-c4cnn(C)c4)ccc32)cc(OC)c1C(=O)NC1CCC[C@@H]1O (stereo in doubt) [compound 141, N-[(1R,2S)-2-hydroxycyclopentyl]-2,6-dimethoxy-4-[5-(1-methylpyrazol-4-yl)benzimidazol-1-yl]benzamide] | 10 to 100 | 10 to 100 | 10 to 100
17 | CCNC(=O)c1c(OC)cc(-n2cnc3cc(-c4noc(C)n4)ccc32)cc1OC(F)F [compound 136, 2-(difluoromethoxy)-N-ethyl-6-methoxy-4-[5-(5-methyl-l,2,4-oxadiazol-3-yl)benzimidazol-1-yl]benzamide] | > 500 | > 500 | > 500
18 | COc1cc(-n2cnc3cc(-c4c[nH]cn4)ccc32)cc(OC)c1C(=O)NCC(F)(F)F [compound 153, 4-[5-(1H-imidazol-4-yl)benzimidazol-1-yl]-2,6-dimethoxy-N-(2,2,2-trifluoroethyl)benzamide] | 10 to 100 | 10 to 100 | 10 to 100
19 | COC(=O)C1CN(C(=O)c2c(OC)cc(-c3cnc4cc(-c5cnn(C)c5)ccn34)cc2OC)C1 [compound 226, methyl 1-[2,6-dimethoxy-4-[7-(1-methylpyrazol-4-yl)imidazo[1,2-a]pyridin-3-yl]benzoyl)azetidine-3-carboxylate] | 10 to 100 | 10 to 100 | 10 to 100
20 | COc1cc(-c2ccc3c(c2)ncn3-c2cc(OC)c(C(=O)NCC(F)(F)F)c(OC)c2)ccn1 [compound 106, 2,6-dimethoxy-4-[5-(2-methoxy-4-pyridyl)benzimidazol-1-yl]-N-(2,2,2-trifluoroethyl)benzamide] | 100 to 500 | 10 to 100 | 10 to 100
21 | COc1cc(-n2cnc3cc(-c4cnn(C)c4)ccc32)cc(OC)c1C(=O)NC(C)C#N (stereo not drawn) [compound 87, N-(1-cyanoethyl)-2,6-dimethoxy-4-[5-(1-methylpyrazol-4-yl)benzimidazol-1-yl]benzamide] | 10 to 100 | 10 to 100 | 10 to 100
22 | COc1cc(-n2cnc3cc(-c4cnn(C)c4)ccc32)cc(OC)c1C(=O)NC1CCCC1(F)F (stereo not drawn) [compound 90, N-(2,2-difluorocyclopentyl)-2,6-dimethoxy-4-[5-(1-methylpyrazol-4-yl)benzimidazol-1-yl]benzamide] | 10 to 100 | 10 to 100 | 10 to 100
23 | COc1cc(-n2cnc3cc(-c4cnn(C)c4)ccc32)cc(OC(F)F)c1C(=O)NC(C)(C)C [compound 199, N-tert-butyl-2-(difluoromethoxy)-6-methoxy-4-[5-(1-methylpyrazol-4-yl)benzimidazol-1-yl]benzamide] | > 500 | > 500 | > 500
24 | CCNC(=O)c1c(O)cc(-n2cnc3cc(-c4cnn(CC)c4)ccc32)cc1OC [compound 23, N-ethyl-4-[5-(1-ethylpyrazol-4-yl)benzimidazol-1-yl]-2-hydroxy-6-methoxy-benzamide] | 10 to 100 | 10 to 100 | 10 to 100
25 | COc1cc(-n2cnc3cc(-c4cnn(C)c4)ccc32)cc(OC)c1C(=O)NC(C)(C)C(F)(F)F [compound 68, 2,6-dimethoxy-4-[5-(1-methylpyrazol-4-yl)benzimidazol-1-yl]-N-(2,2,2-trifluoro-1,1-dimethyl-ethyl)benzamide] | > 500 | > 500 | 100 to 500
26 | COc1cc(-n2cnc3cc(-c4cnn(C)c4)ccc32)cc(OC)c1C(=O)N1CCC(F)CC1 [compound 197, [2,6-dimetlioxy-4-[5-(1-methylpyrazol-4-yl)benzimidazol-1-yl]phenyl]-(4-fluoro-1-piperidyl)methanone] | > 500 | > 500 | > 500
27 | COc1cc(-c2cnc3cc(-c4cnn(C)c4)ccn23)cc(OC)c1C(=O)N1CCC(F)(F)CC1 [compound 212, (4,4-difluoro-1-piperidyl)-[2,6-dimethoxy-4-[7-(1-methylpyrazol-4-yl)imidazo[1,2-a]pyridin-3-yl]phenyl]methanone] | 100 to 500 | 10 to 100 | 100 to 500
28 | COc1cc(-n2cnc3cc(-c4cnn(C)c4)ccc32)cc(OC)c1C(=O)N1CCC1c1ccccc1 (stereo not drawn) [compound 187, [2,6-dimethoxy-4-[5-(1-methylpyrazol-4-yl)benzimidazol-1-yl]phenyl]-(2-phenylazetidin-1-yl)methanone] | > 500 | > 500 | > 500
29 | CCC1(O)CN(C(=O)c2c(OC)cc(-n3cnc4cc(-c5cnn(C)c5)ccc43)cc2OC)C1 [compound 218, [2,6-dimethoxy-4-[5-(1-methylpyrazol-4-yl)benzimidazol-1-yl]phenyl]-(3-ethyl-3-hydroxy-azetidin-1-yl)methanone] | 10 to 100 | 10 to 100 | 100 to 500
